Laboratory results from patent US9695155B2, “Herbicidal substituted pyrimidinyloxy benzene compounds” (E. I. DU PONT DE NEMOURS AND COMPANY, priority 2013, dated 2017).

Experiments:
Assay in all cases: Test F preemergence
Details in all cases: 21 days, scale 0 to 100
[1] = system: foxtail, green; type: in vivo, Setaria viridis
Source text: (§1) Seeds of plant species selected from bermudagrass (Cynodon dactylon), surinam grass (Brachiaria decumbens), large (Lg) crabgrass (Digitaria sanguinalis), crabgrass, naked (naked crabgrass, Digitaria nuda), foxtail, green (green foxtail, Setaria viridis), johnsongrass (Sorghum halepense), kochia (Kochia scoparia), morningglory (pitted morningglory, Ipomoea lacunosa), nutsedge, purple (purple nutsedge, Cyperus rotundus), ragweed (common ragweed, Ambrosia elatior), mustard, black (black mustard, Brassica nigra), guineagrass (Panicum maximum), dallisgrass (Paspalum dilatatum), barnyardgrass (Echinochloa crus-galli), sandbur (southern sandbur, Cenchrus echinatus), sowthistle (common sowthistle, Sonchus oleraceous), Italian ryegrass (Lolium multiflorum), signalgrass (broadleaf signalgrass, Brachiaria platyphylla), dayflower (Virginia (VA) dayflower, Commelina virginica), bluegrass (annual bluegrass, Poa annua), quackgrass (Elytrigia repens), mallow (common mallow, Malva sylvestris), buckwheat, wild (wild buckwheat, Polygonum convolvulus), leafy spurge (Euphorbia esula), chickweed (common chickweed, Stellaria media), wild poinsettia (Euphorbia heterophylla), and pigweed (Amaranthus retroflexus) were planted into a blend of loam soil and sand and treated preemergence with test chemicals formulated in a non-phytotoxic solvent mixture which included a surfactant.
(§2) Treated plants and controls were maintained in a greenhouse for 21 days, after which time all species were compared to controls and visually evaluated. Plant response ratings, summarized in Table F, are based on a scale of 0 to 100 where 0 is no effect and 100 is complete control. A dash (-) response means no test result.

[2] = system: mallow; type: in vivo, Malva sylvestris
Source text: as §1, §2

[3] = system: chickweed; type: in vivo, Stellaria media
Source text: as §1, §2

[4] = system: wild poinsettia; type: in vivo, Euphorbia heterophylla
Source text: as §1, §2

[5] = system: johnsongrass; type: in vivo, Sorghum halepense
Source text: as §1, §2

[6] = system: Italian ryegrass; type: in vivo, Lolium multiflorum
Source text: as §1, §2

[7] = system: mustard, black; type: in vivo, Brassica nigra
Source text: as §1, §2

[8] = system: bluegrass; type: in vivo, Poa annua
Source text: as §1, §2

N#Cc1cccc(Oc2ncc(F)cn2)c1-n1cc(C(F)(F)F)cn1 [Compound 79, 3-[(5-fluoro-2-pyrimidinyl)oxy]-2-[4-(trifluoromethyl)-1H-pyrazol-1-yl]benzonitrile]
Plant response rating, Foxtail, Green ([1]; 16 g ai/ha): 95 | Plant response rating, Foxtail, Green ([1]; 31 g ai/ha): 100 | Plant response rating, Foxtail, Green ([1]; 62 g ai/ha): 100 | Plant response rating, Foxtail, Green ([1]; 125 g ai/ha): 100 | Plant response rating, Foxtail, Green ([1]; 250 g ai/ha): 100 | Plant response rating, Mallow ([2]; 16 g ai/ha): 98 | Plant response rating, Mallow ([2]; 31 g ai/ha): 100 | Plant response rating, Mallow ([2]; 62 g ai/ha): 100 | Plant response rating, Mallow ([2]; 125 g ai/ha): 100 | Plant response rating, Mallow ([2]; 250 g ai/ha): 100 | Plant response rating, Chickweed ([3]; 16 g ai/ha): 98 | Plant response rating, Chickweed ([3]; 31 g ai/ha): 100 | Plant response rating, Chickweed ([3]; 62 g ai/ha): 100 | Plant response rating, Chickweed ([3]; 125 g ai/ha): 100 | Plant response rating, Chickweed ([3]; 250 g ai/ha): 100 | Plant response rating, Poinsettia, Wild ([4]; 16 g ai/ha): 50 | Plant response rating, Poinsettia, Wild ([4]; 31 g ai/ha): 85 | Plant response rating, Poinsettia, Wild ([4]; 62 g ai/ha): 98 | Plant response rating, Poinsettia, Wild ([4]; 125 g ai/ha): 100 | Plant response rating, Poinsettia, Wild ([4]; 250 g ai/ha): 100 | Plant response rating, Johnsongrass ([5]; 16 g ai/ha): 65 | Plant response rating, Johnsongrass ([5]; 31 g ai/ha): 100 | Plant response rating, Johnsongrass ([5]; 62 g ai/ha): 100 | Plant response rating, Johnsongrass ([5]; 125 g ai/ha): 100 | Plant response rating, Johnsongrass ([5]; 250 g ai/ha): 100 | Plant response rating, Ryegrass, Italian ([6]; 16 g ai/ha): 30 | Plant response rating, Ryegrass, Italian ([6]; 31 g ai/ha): 75 | Plant response rating, Ryegrass, Italian ([6]; 62 g ai/ha): 98 | Plant response rating, Ryegrass, Italian ([6]; 125 g ai/ha): 100 | Plant response rating, Ryegrass, Italian ([6]; 250 g ai/ha): 100 | Plant response rating, Mustard, Black ([7]; 16 g ai/ha): 100 | Plant response rating, Mustard, Black ([7]; 31 g ai/ha): 100 | Plant response rating, Mustard, Black ([7]; 62 g ai/ha): 100 | Plant response rating, Mustard, Black ([7]; 125 g ai/ha): 100 | Plant response rating, Mustard, Black ([7]; 250 g ai/ha): 100 | Plant response rating, Bluegrass ([8]; 16 g ai/ha): 50 | Plant response rating, Bluegrass ([8]; 31 g ai/ha): 75 | Plant response rating, Bluegrass ([8]; 62 g ai/ha): 98 | Plant response rating, Bluegrass ([8]; 125 g ai/ha): 100 | Plant response rating, Bluegrass ([8]; 250 g ai/ha): 100

N#Cc1cccc(Oc2ncc(Cl)cn2)c1-n1cc(OC(F)F)cn1 [Compound 97]
Plant response rating, Foxtail, Green ([1]; 16 g ai/ha): 75 | Plant response rating, Foxtail, Green ([1]; 31 g ai/ha): 100 | Plant response rating, Foxtail, Green ([1]; 62 g ai/ha): 100 | Plant response rating, Foxtail, Green ([1]; 125 g ai/ha): 100 | Plant response rating, Foxtail, Green ([1]; 250 g ai/ha): 100 | Plant response rating, Mallow ([2]; 16 g ai/ha): 30 | Plant response rating, Mallow ([2]; 31 g ai/ha): 75 | Plant response rating, Mallow ([2]; 62 g ai/ha): 98 | Plant response rating, Mallow ([2]; 125 g ai/ha): 100 | Plant response rating, Mallow ([2]; 250 g ai/ha): 100 | Plant response rating, Chickweed ([3]; 16 g ai/ha): 100 | Plant response rating, Chickweed ([3]; 31 g ai/ha): 100 | Plant response rating, Chickweed ([3]; 62 g ai/ha): 100 | Plant response rating, Chickweed ([3]; 125 g ai/ha): 100 | Plant response rating, Chickweed ([3]; 250 g ai/ha): 100 | Plant response rating, Poinsettia, Wild ([4]; 16 g ai/ha): 10 | Plant response rating, Poinsettia, Wild ([4]; 31 g ai/ha): 20 | Plant response rating, Poinsettia, Wild ([4]; 62 g ai/ha): 75 | Plant response rating, Poinsettia, Wild ([4]; 125 g ai/ha): 98 | Plant response rating, Poinsettia, Wild ([4]; 250 g ai/ha): 98 | Plant response rating, Johnsongrass ([5]; 16 g ai/ha): 0 | Plant response rating, Johnsongrass ([5]; 31 g ai/ha): 65 | Plant response rating, Johnsongrass ([5]; 62 g ai/ha): 95 | Plant response rating, Johnsongrass ([5]; 125 g ai/ha): 100 | Plant response rating, Johnsongrass ([5]; 250 g ai/ha): 100 | Plant response rating, Ryegrass, Italian ([6]; 16 g ai/ha): 0 | Plant response rating, Ryegrass, Italian ([6]; 31 g ai/ha): 35 | Plant response rating, Ryegrass, Italian ([6]; 62 g ai/ha): 70 | Plant response rating, Ryegrass, Italian ([6]; 125 g ai/ha): 85 | Plant response rating, Ryegrass, Italian ([6]; 250 g ai/ha): 100 | Plant response rating, Mustard, Black ([7]; 16 g ai/ha): 90 | Plant response rating, Mustard, Black ([7]; 31 g ai/ha): 100 | Plant response rating, Mustard, Black ([7]; 62 g ai/ha): 100 | Plant response rating, Mustard, Black ([7]; 125 g ai/ha): 100 | Plant response rating, Mustard, Black ([7]; 250 g ai/ha): 100 | Plant response rating, Bluegrass ([8]; 16 g ai/ha): 5 | Plant response rating, Bluegrass ([8]; 31 g ai/ha): 35 | Plant response rating, Bluegrass ([8]; 62 g ai/ha): 75 | Plant response rating, Bluegrass ([8]; 125 g ai/ha): 98 | Plant response rating, Bluegrass ([8]; 250 g ai/ha): 100
